Source: patent publication US6689777B2 (Kenneth S. Warren Institute, priority 2001, dated 2004)
pIC50: −log10 of the molar value.

Experiments:
synthetic hemozoin = assay: Depolymerization of synthetic hemozoin in vitro; type: biochemical; settings: Table 3; 50 mM test compound, acetate buffer pH 5.0, 37° C., 16 hours
Method: This activity is evaluated by incubating a suspension of monomer-free hemozoin at 37° C. with compounds of the present invention for 16 hours. After incubation, hemozoin is separated from any solubilized heme and soluble heme oligomers, the oligomers depolymerized, and the heme present in the supernatants determined.
The synthesis of synthetic hemozoin is carried out as previously described (26). In brief, 60 μmoles of hematin was dissolved in 8 ml of 0.1N NaOH. Following dissolution 49 mmoles of glacial acetic acid was added and the suspension heated at 70° C. overnight. The precipitate was then washed extensively with LPS-free water. In order to remove unreacted heme the precipitate was extracted with 0.1M sodium bicarbonate (pH 9.1) for three hours. The remaining insoluble material was recovered by centrifugation, resuspended in EtOH and transferred to sterile Eppendorf tubes. The material was washed several times in EtOH and finally resuspended in LPS-free double-distilled H2O. The hemozoin preparation was then tested for endotoxin by using the Limulus Amebocyte Lysate test following manufacturer's instructions. Although the preparation of LPS-free hemozoin from native or synthetic sources is not critical for in vitro depolymerization studies, it is critical for studies involving monocytes and animals (see Examples below). Small amounts of LPS can evoke a considerable cytokine response and interfere with interpretation of results. The amount of heme in the final product was determined from a small aliquot using the pyridine-hemochrome method as previously described (26). The preparations are stored at 4° C. until used.
A suspension of monomer-free hemozoin (equivalent to 2 mM free heme) as prepared above was incubated at 37° C. with […] test compound in total volume of 500 μl in acetate buffer (pH: 5.0) in siliconized Eppendorf tubes (Brinkmann Instruments, Westbury, N.Y.) for 16 hours. A control sample containing distilled H2O instead of hemozoin was included. The samples were centrifuged at 14,000 rpm (Eppendorf centrifuge model 5415C, Brinkmann Instruments, Westbury, N.Y.) for 20 min; then 225 μl supernatant was diluted in 175 μl acetate buffer (pH 5.0). Another 225 μl was added to 175 μl 0.5 M NaOH to dissolve possible oligomeric depolymerization products to monomers. Half of the pellet was washed twice for 2.5 hr in 200 μl 2.5% SDS (v/v) in dH2O, the other half was washed twice in 200 μl HCO3^− buffer (pH: 9.1). Both sample supernatants and SDS and HCO3^− buffer supernatants were centrifuged 14,000 rpm for 20 min. and supernatants were added to 10 μl sodium dithionite (200 mg/ml dH2O) to reduce the heme monomers in solution to Fe^2+. All samples were measured in triplicate at 540 nm (Model UV1601 spectrophotometer, Shimradzu Corp, Columbia, Md.). The OD obtained from the blind sample was subtracted from the OD of the hemozoin containing sample.

[1] = test system: P. falciparum chloroquine resistant strain (CQR); assay: P. falciparum growth in culture, chloroquine resistant strain ([3H]-hypoxanthine incorporation); type: cell-based; settings: Plasmodium falciparum, Table 3, read-out: IC50 vs. P. falc. in CQR
Method: To determine the effectiveness of the compounds of the present invention against the erythrocytic stage of the malarial parasite, P. falciparum was grown in human erythrocyte suspensions and maintained at 37° C. in candle jars according to the method of Trager and Jensen (15,16). Parasites were stage-synchronized by incubating mainly ring-stage infected erythrocytes in 5% sorbitol for 10 minutes at room temperature (17). Cultures undergo one growth cycle (2 days) before use. Strains used include the chloroquine sensitive strains D10 and HB3, and the chloroquine resistant isolates Dd2 and FCR.
(§1) Parasite growth was determined by measuring incorporation of [^3H]-hypoxanthine into the nucleic acids of the parasite (18). Effects of the compounds of the present invention on parasite growth was determined by measuring the reduction in incorporation of radiolabel as compared to controls. […] After 18 h the plates are harvested onto glass fiber filter 96 well plates using a cell harvester, dried, and the amount of radioactivity is determined. […]
as §1, with “as previously described (23).” for “(18).”, “The,” for “After 18 h the plates are harvested onto glass fiber filter 96 well plates using a cell harvester, dried, and the”, “was” for “is”

P. falciparum = P. falciparum growth in culture ([3H]-hypoxanthine incorporation); type: cell-based; settings: Plasmodium falciparum, Table 3, naphthothiazolium salts, in culture, read-out: IC50 vs. P. falc.
[2] = test system: hemozoin ingested by human monocytes; assay: Breakdown of macrophage-ingested hemozoin; type: cell-based; settings: 25 μM compound, FIG. 1
Method: A further evaluation of compounds was performed for activity against pathophysiological effects of hemozoin on the host, using hemozoin-laden macrophages in culture. Freshly-isolated human monocytes were suspended in medium and hemozoin at a concentration reflective of the amount of hemozoin released into circulation during schizogony. In order to maximize contact between hemozoin and monocytes, the cell preparations were centrifuged for 5 sec at 150×g. Ingestion of hemozoin is essentially complete by two hours. Cells were then washed, plated and kept in a humidified incubator. The test compounds of the present invention were added to the wells at concentrations ranging from 0 to 20 mM. Macrophage viability was determined by direct microscopic examination (gross morphology and detachment from the well), trypan blue exclusion method, and LDH release. […] At various times post-treatment (1 hour; 3 hours), cells were lysed, extensively washed and spun down (2500×g) to pellet any cellular components including hemozoin. The lysates were then treated with alkali to dissolve hemozoin to give monomeric heme (35). Monomeric heme was quantified as described above.
Human monocytes were freshly isolated from a buffy coat from a normal donor using Percoll gradients. […] Cells were solubilized at various time points and hemozoin content determined by luminol-elicited chemiluminescence.

[3] = test system: freshly isolated human monocytes; assay: Spontaneous and PMA-elicited oxidative burst by freshly isolated human monocytes; type: cell-based; settings: compound 25 uM, PMA 200 nM
Method: Furthermore, Arese and colleagues have data supporting the role of the ingested hemozoin in macrophage dysfunction. Therefore, the compounds of the present invention were evaluated to assess their ability to induce recovery of macrophage effector functions induced by hemozoin. Initially, the effect of the compounds of the present invention were evaluated on spontaneous and PMA-elicited oxidative burst by freshly isolated human monocytes. As will be elaborated upon in the Examples below, freshly isolated human monocytes were plated at 5×10^6 cells/ml, and allowed to equilibrate to 37° C. for 1 h. Compounds of the instant invention were added at a final concentration of 25 uM and PMA added to 200 nM final concentration. Cell suspension aliquots were taken at 30, 60, and 120 minutes, and 14 hours. The oxidative burst was measured by luminol-elicited chemiluminescence for 30 sec., and data expressed as counts per 0.5×10^6 cells.

pIC50 [1]	pIC50 (P. falciparum)	Compound	% depol. hemoz. (synthetic hemozoin)	hemozoin content of monocytes after phagocytosis of hemozoin (luminol-elicited chemiluminescence) [2]	oxidative burst (luminol-elicited chemiluminescence) [3]
6.30	7.12	Cc1c(O)c2ccccc2c2c1sc(NCCCN1CCN(C)CC1)[n+]2C.[Cl-] [1,2-dihydro-1,4-dimethyl-2-[[3-(4-methyl-1-piperazinyl)propyl]imino]naphtho[1,2-d]thiazol-5-ol trihydrochloride]	2.0%	–	–
7.12	7.12	Cc1c(O)c2ccccc2c2c1sc(NC1CCCCC1)[n+]2CCCN(C)C.Cl.[Cl-] [2-(cyclohexylimino)-1,2-dihydro-4-methyl-1-[3-(dimethylamino)propyl]naphtho[1,2-d]thiazol-5-ol dihydrochloride]	2.2%	hemozoin-dissolving ability	strong inhibitor
